Here are results for 18 compounds from patent US8969586B2 (Bristol-Myers Squibb Company, priority 2011, dated 2015).

The target in the assay is Human CYP17 (Homo sapiens (Human), UniProt P05093). Nature of the assay: CYP17 Total SPA Assay. Conditions: microsomes from HEK2 cells stably transfected with CYP17; 3H-Pregnenolone 1 uM, NADPH 2 mM; 45 minutes at room temperature. The format is biochemical. How it is done: The assays were performed in U-bottom 384-well optiplates. The final assay volume was 15 μl prepared from 7.5 μl additions of microsomes (prepared as a high-speed pellet from homogenized HEK2 cells stably transfected with CYP17), substrates (3H-Pregnenolone and NADPH) and test compounds in assay buffer (50 mM Potassium phosphate pH 7.2, 10% glycerol). The reaction was initiated by the combination of the microsomes and substrates in wells containing compound. The reaction was incubated at room temperature for 45 minutes and terminated by adding 7.5 μl of 0.2N HCl to each well. Following an incubation period of 10 minutes, anti-DHEA-coated SPA beads were added to the terminated reaction. The plate was sealed and incubated overnight with shaking at 4° C. The beads were allowed to settle in the plate for 1 hour and the plate read on a TOPCOUNT® (Perkin-Elmer) plate reader.
Sequence of Human CYP17 (P05093 whole entry): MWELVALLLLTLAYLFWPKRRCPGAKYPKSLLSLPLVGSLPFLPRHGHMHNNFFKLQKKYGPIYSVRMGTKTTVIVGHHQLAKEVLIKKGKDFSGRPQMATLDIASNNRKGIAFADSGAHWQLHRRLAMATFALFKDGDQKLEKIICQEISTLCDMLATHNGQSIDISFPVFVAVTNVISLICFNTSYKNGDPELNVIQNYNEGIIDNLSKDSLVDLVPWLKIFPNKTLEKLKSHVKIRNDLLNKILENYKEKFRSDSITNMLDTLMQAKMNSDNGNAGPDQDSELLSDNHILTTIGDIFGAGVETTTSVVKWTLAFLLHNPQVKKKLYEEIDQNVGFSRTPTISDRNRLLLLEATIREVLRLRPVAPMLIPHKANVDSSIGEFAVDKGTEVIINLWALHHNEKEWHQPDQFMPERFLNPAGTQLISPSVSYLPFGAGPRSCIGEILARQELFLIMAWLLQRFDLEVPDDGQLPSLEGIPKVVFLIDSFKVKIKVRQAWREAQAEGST
Inhibition data were calculated by comparison to no enzyme control reactions for 100% inhibition and vehicle-only reactions for 0% inhibition. The final concentration of reagents in the assays are NADPH, 2 mM; 3H-Pregnenolone, 1 uM; microsomes, 1.25 ug/ml; Anti-DHEA-SPA beads (0.125 mg/well) in 0.5% Triton X-100 and DMSO, 0.05%. Dose response curves were generated to determine the concentration required inhibiting 50% of enzyme activity (IC50). Compounds were dissolved at 10 mM in dimethylsulfoxide (DMSO) and evaluated at eleven concentrations, each in duplicate. IC50 values were derived by non-linear regression analysis.
Table 5 below lists the IC50 values for the following examples of this invention measured in the Total CYP17 SPA Assay hereinabove.

The IC50 is the concentration that inhibits the measured activity by half. `Cc1ccncc1-c1cccc2c(-c3ccccc3)noc12` [Example 1, 7-(4-Methylpyridin-3-yl)-3-phenylbenzo[d]isoxazole]: the IC50 amounted to 1.1 nM.

As to `Cc1ncncc1-c1cccc2c(-c3ccccc3)noc12` [Example 4, 7-(4-Methylpyrimidin-5-yl)-3-phenylbenzo[d]isoxazole], the IC50 is 357 nM.

As to `Cc1ccncc1-c1cccc2c(-c3ccc(F)cc3)noc12` [Example 6, 3-(4-Fluorophenyl)-7-(4-methylpyridin-3-yl)benzo[d]isoxazole], the IC50 turned out to be 3.2 nM.

On to `Fc1ccc(-c2noc3c(-c4cncn5cccc45)cccc23)cc1` [Example 14, 3-(4-Fluorophenyl)-7-(pyrrolo[1,2-c]pyrimidin-4-yl)benzo[d]isoxazole], for which the IC50 worked out at 192 nM.

Turning to `FC(F)(F)COc1ncncc1-c1cccc2c(-c3cnccn3)noc12` [Example 26, 3-(Pyrazin-2-yl)-7-(4-(2,2,2-trifluoroethoxy)pyrimidin-5-yl)benzo[d]isoxazole], the IC50 was 65 nM.

Take `Clc1ccncc1-c1cccc2c(C3CC3)noc12` [Example 30, 7-(4-Chloropyridin-3-yl)-3-cyclopropylbenzo[d]isoxazole]: the half-maximal inhibitory concentration (IC50) turned out to be 48 nM.

In the case of `Clc1ccccc1-c1noc2c(-c3cncnc3-n3cncn3)cccc12` [Example 52, 7-(4-(1H-1,2,4-Triazol-1-yl)pyrimidin-5-yl)-3-(2-chlorophenyl)benzo[d]isoxazole], the IC50 worked out at 42 nM.

For `Clc1ccccc1-c1noc2c(-c3cncnc3-n3nccn3)cccc12` [Example 57, 7-(4-(2H-1,2,3-Triazol-2-yl)pyrimidin-5-yl)-3-(2-chlorophenyl)benzo[d]isoxazole], the IC50 came to 524 nM.

As for `Cc1ccncc1-c1cccc2c(OCCN(C)C)noc12` [Example 68], the IC50 was 524 nM.

With `Cc1ccncc1-c1ccnc2c(-c3ccc(F)cc3)noc12` [Example 86, 3-(4-Fluorophenyl)-7-(4-methylpyridin-3-yl)isoxazolo[4,5-b]pyridine], the IC50 worked out at 3.9 nM.

On to `Cc1ccncc1-c1ccnc2c(-c3nccs3)csc12` [Example 94, 7-(4-Methylpyridin-3-yl)-3-(thiazol-2-yl)thieno[3,2-b]pyridine], for which the IC50 came to 76 nM.

`Cc1ncncc1-c1ccnc2c(-c3ccc(F)cc3)csc12` [Example 98, 3-(4-Fluorophenyl)-7-(4-methylpyrimidin-5-yl)thieno[3,2-b]pyridine]: the IC50 was 8 nM.

In the case of `Fc1ccc(-c2csc3c(-c4cncnc4C4CC4)ccnc23)cc1` [Example 99, 7-(4-Cyclopropylpyrimidin-5-yl)-3-(4-fluorophenyl)thieno[3,2-b]pyridine], the IC50 was 4 nM.

With `Nc1ncncc1-c1ccnc2c(-c3ccc(F)cc3Cl)csc12` [Example 103, 5-(3-(2-Chloro-4-fluorophenyl)thieno[3,2-b]pyridin-7-yl)pyrimidin-4-amine], the IC50 came out at 4 nM.

With `Fc1ccc(-c2csc3c(-c4cncc5ccccc45)cccc23)cc1` [Example 109, 4-(3-(4-Fluorophenyl)benzo[b]thiophen-7-yl)isoquinoline], the IC50 is 56 nM.

As for `Cc1ccncc1-c1cccc2c(OCc3ccc4ccccc4c3)noc12` [Example 124, 7-(4-methylpyridin-3-yl)-3-(naphthalen-2-ylmethoxy)benzo [d]isoxazole], the IC50 stood at 611 nM.

For `Cc1ccncc1-c1cccc2c(OCc3ccc(Cl)cc3)noc12` [Example 128, 3-(4-chlorobenzyloxy)-7-(4-methylpyridin-3-yl)benzo[d] isoxazole], the IC50 was determined as 251 nM.

For `COc1ccc(COc2noc3c(-c4cnccc4C)cccc23)cc1` [Example 129, 3-(4-methoxybenzyloxy)-7-(4-methylpyridin-3-yl)benzo[d] isoxazole], the IC50 stood at 79 nM.
